Measurements from ChEMBL document CHEMBL4308841, “Synthesis, in vitro antiproliferative activity, and kinase inhibitory effects of pyrazole-containing diarylureas and diarylamides” (Eur J Med Chem, 2018).

Tested on: DU-145
Assay: Growth inhibition of human DU145 cells assessed as cell growth at 10 uM incubated for 48 hrs by sulforhodamine B assay relative to control
Assay type: functional
Conditions: DU-145, 48 h, read-out: Activity

Structure (SMILES)	growth at 10 µM
O=C(Nc1cccc(-n2cc(-c3ccncc3)c(-c3cc(O)cc(Cl)c3)n2)c1)c1ccc(N2CCOCC2)c(C(F)(F)F)c1	38%

Tested on: MDA-MB-468
Assay: Growth inhibition of human MDA-MB-468 cells assessed as cell growth at 10 uM incubated for 48 hrs by sulforhodamine B assay relative to control
Assay type: functional
Conditions: MDA-MB-468, 48 h, read-out: Activity

Structure (SMILES)	growth at 10 µM
O=C(Nc1cccc(-n2cc(-c3ccncc3)c(-c3cc(O)cc(Cl)c3)n2)c1)c1ccc(N2CCOCC2)c(C(F)(F)F)c1	26%

Tested on: NCI/ADR-RES
Assay: Growth inhibition of human NCI/ADR-RES cells incubated for 48 hrs by sulforhodamine B assay
Assay type: functional, cell-based
Conditions: read-out: GI50

Structure (SMILES)	GI50
O=C(Nc1cccc(-n2cc(-c3ccncc3)c(-c3cc(O)cc(Cl)c3)n2)c1)c1ccc(N2CCOCC2)c(C(F)(F)F)c1	45.9 µM

Same assay, conditions: read-out: LC50 (the source's name)

Structure (SMILES)	CC50
O=C(Nc1cccc(-n2cc(-c3ccncc3)c(-c3cc(O)cc(Cl)c3)n2)c1)c1ccc(N2CCOCC2)c(C(F)(F)F)c1	> 100 µM

Same assay, conditions: read-out: TGI

Structure (SMILES)	TGI
O=C(Nc1cccc(-n2cc(-c3ccncc3)c(-c3cc(O)cc(Cl)c3)n2)c1)c1ccc(N2CCOCC2)c(C(F)(F)F)c1	> 100 µM

Same assay, conditions: read-out: pGI50 (converted)

Structure (SMILES)	GI50
O=C(Nc1cccc(-n2cc(-c3ccncc3)c(-c3cc(O)cc(Cl)c3)n2)c1)c1ccc(N2CCOCC2)c(C(F)(F)F)c1	4.57 µM

Same assay, conditions: read-out: pLC50 (the source's name) (converted)

Structure (SMILES)	CC50
O=C(Nc1cccc(-n2cc(-c3ccncc3)c(-c3cc(O)cc(Cl)c3)n2)c1)c1ccc(N2CCOCC2)c(C(F)(F)F)c1	> 100 µM

Same assay, conditions: read-out: pTGI (converted)

Structure (SMILES)	TGI
O=C(Nc1cccc(-n2cc(-c3ccncc3)c(-c3cc(O)cc(Cl)c3)n2)c1)c1ccc(N2CCOCC2)c(C(F)(F)F)c1	> 100 µM

Tested on: LOX IMVI
Assay: Growth inhibition of human LOXIMVI cells assessed as cell growth at 0.01 uM incubated for 48 hrs by sulforhodamine B assay relative to control
Assay type: functional
Conditions: read-out: Activity

Structure (SMILES)	growth at 0.01 µM
O=C(Nc1cccc(-n2cc(-c3ccncc3)c(-c3cc(O)cc(Cl)c3)n2)c1)c1ccc(N2CCOCC2)c(C(F)(F)F)c1	100%

Tested on: MOLT-4
Assay: Growth inhibition of human MOLT4 cells assessed as cell growth at 0.1 uM incubated for 48 hrs by sulforhodamine B assay relative to control
Assay type: functional
Conditions: MOLT-4, 48 h, read-out: Activity

Structure (SMILES)	growth at 0.1 µM
O=C(Nc1cccc(-n2cc(-c3ccncc3)c(-c3cc(O)cc(Cl)c3)n2)c1)c1ccc(N2CCOCC2)c(C(F)(F)F)c1	97%

Tested on: SF-295
Assay: Growth inhibition of human SF295 cells assessed as cell growth at 0.1 uM incubated for 48 hrs by sulforhodamine B assay relative to control
Assay type: functional
Conditions: SF-295, 48 h, read-out: Activity

Structure (SMILES)	growth at 0.1 µM
O=C(Nc1cccc(-n2cc(-c3ccncc3)c(-c3cc(O)cc(Cl)c3)n2)c1)c1ccc(N2CCOCC2)c(C(F)(F)F)c1	90%

Tested on: SK-MEL-5
Assay: Growth inhibition of human SK-MEL-5 cells assessed as cell growth at 0.1 uM incubated for 48 hrs by sulforhodamine B assay relative to control
Assay type: functional
Conditions: SK-MEL-5, 48 h, read-out: Activity

Structure (SMILES)	growth at 0.1 µM
O=C(Nc1cccc(-n2cc(-c3ccncc3)c(-c3cc(O)cc(Cl)c3)n2)c1)c1ccc(N2CCOCC2)c(C(F)(F)F)c1	91%

Tested on: PC-3
Assay: Growth inhibition of human PC3 cells assessed as cell growth at 0.1 uM incubated for 48 hrs by sulforhodamine B assay relative to control
Assay type: functional
Conditions: PC-3, 48 h, read-out: Activity

Structure (SMILES)	growth at 0.1 µM
O=C(Nc1cccc(-n2cc(-c3ccncc3)c(-c3cc(O)cc(Cl)c3)n2)c1)c1ccc(N2CCOCC2)c(C(F)(F)F)c1	92%

Tested on: SK-MEL-5
Assay: Growth inhibition of human SK-MEL-5 cells assessed as cell growth at 1 uM incubated for 48 hrs by sulforhodamine B assay relative to control
Assay type: functional
Conditions: SK-MEL-5, 48 h, read-out: Activity

Structure (SMILES)	growth at 1 µM
O=C(Nc1cccc(-n2cc(-c3ccncc3)c(-c3cc(O)cc(Cl)c3)n2)c1)c1ccc(N2CCOCC2)c(C(F)(F)F)c1	52%

Tested on: OVCAR-3
Assay: Growth inhibition of human OVCAR3 cells assessed as cell growth at 1 uM incubated for 48 hrs by sulforhodamine B assay relative to control
Assay type: functional
Conditions: OVCAR-3, 48 h, read-out: Activity

Structure (SMILES)	growth at 1 µM
O=C(Nc1cccc(-n2cc(-c3ccncc3)c(-c3cc(O)cc(Cl)c3)n2)c1)c1ccc(N2CCOCC2)c(C(F)(F)F)c1	99%

Tested on: OVCAR-5
Assay: Growth inhibition of human OVCAR5 cells assessed as cell growth at 1 uM incubated for 48 hrs by sulforhodamine B assay relative to control
Assay type: functional
Conditions: OVCAR-5, 48 h, read-out: Activity

Structure (SMILES)	growth at 1 µM
O=C(Nc1cccc(-n2cc(-c3ccncc3)c(-c3cc(O)cc(Cl)c3)n2)c1)c1ccc(N2CCOCC2)c(C(F)(F)F)c1	111%

Tested on: A549
Assay: Growth inhibition of human A549/ATCC cells assessed as cell growth at 100 uM incubated for 48 hrs by sulforhodamine B assay relative to control
Assay type: functional
Conditions: A549, 48 h, read-out: Activity

Structure (SMILES)	growth at 100 µM
O=C(Nc1cccc(-n2cc(-c3ccncc3)c(-c3cc(O)cc(Cl)c3)n2)c1)c1ccc(N2CCOCC2)c(C(F)(F)F)c1	-14%

Tested on: HT-29
Assay: Growth inhibition of human HT-29 cells assessed as cell growth at 100 uM incubated for 48 hrs by sulforhodamine B assay relative to control
Assay type: functional
Conditions: HT-29, 48 h, read-out: Activity

Structure (SMILES)	growth at 100 µM
O=C(Nc1cccc(-n2cc(-c3ccncc3)c(-c3cc(O)cc(Cl)c3)n2)c1)c1ccc(N2CCOCC2)c(C(F)(F)F)c1	-41%

Tested on: DU-145
Assay: Growth inhibition of human DU145 cells assessed as cell growth at 100 uM incubated for 48 hrs by sulforhodamine B assay relative to control
Assay type: functional
Conditions: DU-145, 48 h, read-out: Activity

Structure (SMILES)	growth at 100 µM
O=C(Nc1cccc(-n2cc(-c3ccncc3)c(-c3cc(O)cc(Cl)c3)n2)c1)c1ccc(N2CCOCC2)c(C(F)(F)F)c1	13%
